# Test results from BindingDB's records for patent US10030020 (ABIDE THERAPEUTICS, INC., 2018).
# Molecular target: T1, Monoacylglycerol lipase ABHD6 (Mus musculus, UniProt Q8R2Y0)
# T1 sequence (Q8R2Y0 whole entry): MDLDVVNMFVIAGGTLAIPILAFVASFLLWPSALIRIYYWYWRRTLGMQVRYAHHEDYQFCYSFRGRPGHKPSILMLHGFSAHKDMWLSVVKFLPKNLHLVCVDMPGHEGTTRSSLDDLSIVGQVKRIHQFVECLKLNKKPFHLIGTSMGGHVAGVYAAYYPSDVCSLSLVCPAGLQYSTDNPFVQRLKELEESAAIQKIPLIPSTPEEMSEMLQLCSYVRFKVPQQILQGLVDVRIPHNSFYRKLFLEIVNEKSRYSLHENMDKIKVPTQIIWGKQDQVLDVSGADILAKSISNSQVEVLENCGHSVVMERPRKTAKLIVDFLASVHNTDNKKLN
# Experiment: In Vitro Competitive Activity-Based Protein Profiling
# Experimental: Proteomes (mouse brain membrane fraction or cell lysates) (50 μL, 1.0 mg/mL total protein concentration) were preincubated with varying concentrations of inhibitors at 37° C. After 30 min, FP Rh (1.0 μL, 50 μM in DMSO) was added and the mixture was incubated for another 30 min at 37° C. Reactions were quenched with SDS loading buffer (50 μL-4×) and run on SDS-PAGE.
smiles,measurement,value
"O=C(OC(C(F)(F)F)C(F)(F)F)N1CCC2(CCCN2Cc2ccc(OCCN3CCOCC3)cc2)CC1 [US10030020, Example 14]",IC50,> 1000 nM
